Results published in publication PMC6934184, “Selective DNA-PKcs inhibition extends the therapeutic index of localized radiotherapy and chemotherapy” (The Journal of Clinical Investigation, 2019).

Molecular target: T1, EPHA3 (Homo sapiens, UniProt P29320)
T1 construct: purchased Thermo Fisher Scientific (Life Technologies) SelectScreen
Test: SelectScreen LanthaScreen
Assay type: binding
Conditions: read-out: % displacement
How it was run: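 Percent values come from Thermo SelectScreen profiling of NU5455, combining activity and binding assays. CSF1R was run in Z'LYTE format at Km app ATP, and CAMK1 in Adapta format with ATP listed at 10.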

T1 sequence (P29320 21-983): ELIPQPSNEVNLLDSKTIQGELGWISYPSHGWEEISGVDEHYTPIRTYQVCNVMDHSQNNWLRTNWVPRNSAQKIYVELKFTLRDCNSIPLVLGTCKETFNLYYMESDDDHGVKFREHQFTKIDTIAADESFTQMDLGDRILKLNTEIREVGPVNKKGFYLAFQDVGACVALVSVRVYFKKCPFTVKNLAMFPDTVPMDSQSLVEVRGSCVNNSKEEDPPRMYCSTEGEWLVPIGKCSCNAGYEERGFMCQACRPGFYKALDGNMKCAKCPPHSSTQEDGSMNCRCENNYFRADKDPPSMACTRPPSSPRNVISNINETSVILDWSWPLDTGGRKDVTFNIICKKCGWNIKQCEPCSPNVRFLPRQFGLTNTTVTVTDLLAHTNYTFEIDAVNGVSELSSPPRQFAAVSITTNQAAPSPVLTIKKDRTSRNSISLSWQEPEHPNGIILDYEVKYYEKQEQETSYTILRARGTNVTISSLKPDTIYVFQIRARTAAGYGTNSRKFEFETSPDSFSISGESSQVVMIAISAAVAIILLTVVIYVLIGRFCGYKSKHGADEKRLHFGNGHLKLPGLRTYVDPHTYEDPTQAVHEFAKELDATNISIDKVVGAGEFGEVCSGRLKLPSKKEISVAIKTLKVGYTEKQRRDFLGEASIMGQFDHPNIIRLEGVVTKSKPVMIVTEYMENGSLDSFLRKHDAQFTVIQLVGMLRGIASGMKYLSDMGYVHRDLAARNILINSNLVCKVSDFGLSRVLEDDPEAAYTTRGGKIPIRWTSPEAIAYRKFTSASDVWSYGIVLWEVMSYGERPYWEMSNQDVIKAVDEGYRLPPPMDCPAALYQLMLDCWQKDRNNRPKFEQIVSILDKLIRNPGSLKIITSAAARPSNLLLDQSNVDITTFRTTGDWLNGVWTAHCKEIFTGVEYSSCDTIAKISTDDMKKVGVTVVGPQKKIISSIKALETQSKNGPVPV

Q: For `CN(C(=O)CN1CCOCC1)c1ccc2sc3c(-c4cccc5c(=O)cc(N6CC7CCC(C6)O7)oc45)cccc3c2c1` [NU5455], which inhibition at 1 µM is on record?
A: Its inhibition at 1 µM is -0.3%.
